Source: article PMC9856672, “SGC-CAMKK2-1: A Chemical Probe for CAMKK2” (Cells, 2023)

Tests used:
HIPK1 = molecular target: T1, HIPK1 (Homo sapiens, UniProt Q86Z02); assay: KINOMEscan at 1 μM, HIPK1; format: binding; details: 1000 nM, read-out: Percent Control
T1 construct: purchased Eurofins DiscoverX KINOMEscan
Excerpt: (§1) Supplement cells-12-00287-s001.zip/File S2. KinomeScan data for the CAMKK2 probe and negative control.xlsx, sheet "SGC-CAMKK2-1N" | column: Percent Control

WNK2 = molecular target: T2, WNK2 (Homo sapiens, UniProt Q9Y3S1); assay: KINOMEscan at 1 μM, WNK2; format: binding; details: 1000 nM, read-out: Percent Control
T2 construct: purchased Eurofins DiscoverX KINOMEscan
Excerpt: as §1

TESK1 = molecular target: T3, TESK1 (Homo sapiens, UniProt Q15569); assay: KINOMEscan at 1 μM, TESK1; format: binding; details: 1000 nM, read-out: Percent Control
T3 construct: purchased Eurofins DiscoverX KINOMEscan
Excerpt: as §1

ZAK = molecular target: T4, ZAK (Homo sapiens, UniProt Q9NYL2); assay: KINOMEscan at 1 μM, ZAK; format: binding; details: 1000 nM, read-out: Percent Control
T4 construct: purchased Eurofins DiscoverX KINOMEscan
Excerpt: as §1

PAK2 = molecular target: T5, PAK2 (Homo sapiens, UniProt Q13177); assay: KINOMEscan at 1 μM, PAK2; format: binding; details: 1000 nM, read-out: Percent Control
T5 construct: purchased Eurofins DiscoverX KINOMEscan
Excerpt: as §1

MST2 = molecular target: T6, MST2 (Homo sapiens, UniProt Q13188); assay: KINOMEscan at 1 μM, MST2; format: binding; details: 1000 nM, read-out: Percent Control
T6 construct: purchased Eurofins DiscoverX KINOMEscan
Excerpt: as §1

MAP3K2 = molecular target: T7, MAP3K2 (Homo sapiens, UniProt Q9Y2U5); assay: KINOMEscan at 1 μM, MAP3K2; format: binding; details: 1000 nM, read-out: Percent Control
T7 construct: purchased Eurofins DiscoverX KINOMEscan
Excerpt: as §1

BRAF(V600E) = molecular target: T8, BRAF(V600E) (Homo sapiens, UniProt P15056, V600E); assay: KINOMEscan at 1 μM, BRAF(V600E); format: binding; details: 1000 nM, read-out: Percent Control
T8 construct: purchased Eurofins DiscoverX KINOMEscan
Excerpt: as §1

CSF1R-autoinhibited = molecular target: T9, CSF1R-autoinhibited (Homo sapiens, UniProt P07333); assay: KINOMEscan at 1 μM, CSF1R-autoinhibited; format: binding; details: 1000 nM, read-out: Percent Control
T9 construct: purchased Eurofins DiscoverX KINOMEscan
Excerpt: as §1

SNARK = molecular target: T10, SNARK (Homo sapiens, UniProt Q9H093); assay: KINOMEscan at 1 μM, SNARK; format: binding; details: 1000 nM, read-out: Percent Control
T10 construct: purchased Eurofins DiscoverX KINOMEscan
Excerpt: as §1

MST1R = molecular target: T11, MST1R (Homo sapiens, UniProt Q04912); assay: KINOMEscan at 1 μM, MST1R; format: binding; details: 1000 nM, read-out: Percent Control
T11 construct: purchased Eurofins DiscoverX KINOMEscan
Excerpt: as §1

EPHA8 = molecular target: T12, EPHA8 (Homo sapiens, UniProt P29322); assay: KINOMEscan binding assay at 1 μM, EPHA8; details: Compound Concentration 1000 nM; read-out: Percent Control
T12 construct: purchased Eurofins DiscoverX KINOMEscan
Excerpt: as §1

HCK = molecular target: T13, HCK (Homo sapiens, UniProt P08631); assay: KINOMEscan binding assay at 1 μM, HCK; details: Compound Concentration 1000 nM; read-out: Percent Control
T13 construct: purchased Eurofins DiscoverX KINOMEscan
Excerpt: as §1

MAPKAPK5 = molecular target: T14, MAPKAPK5 (Homo sapiens, UniProt Q8IW41); assay: KINOMEscan binding assay at 1 μM, MAPKAPK5; details: Compound Concentration 1000 nM; read-out: Percent Control
T14 construct: purchased Eurofins DiscoverX KINOMEscan
Excerpt: as §1

PAK3 = molecular target: T15, PAK3 (Homo sapiens, UniProt O75914); assay: KINOMEscan binding assay at 1 μM, PAK3; details: Compound Concentration 1000 nM; read-out: Percent Control
T15 construct: purchased Eurofins DiscoverX KINOMEscan
Excerpt: as §1

[1] = molecular target: T16, RSK4(Kin.Dom.2-C-terminal) (Homo sapiens, UniProt Q9UK32); assay: KINOMEscan binding assay at 1 μM, RSK4(Kin.Dom.2-C-terminal); details: Compound Concentration 1000 nM; read-out: Percent Control
T16 construct: RSK4(Kin.Dom.2-C-terminal); purchased Eurofins DiscoverX KINOMEscan
Excerpt: as §1

[2] = molecular target: T17, EGFR(L747-S752del, P753S) (Homo sapiens, UniProt P00533, DEL747-752/P753S); assay: KINOMEscan 1 μM, EGFR(L747-S752del, P753S); format: binding; details: 1000 nM; Entrez EGFR; read-out: Percent Control
T17 construct: purchased Eurofins DiscoverX KINOMEscan
Excerpt: (§2) Supplement cells-12-00287-s001.zip/File S2. KinomeScan data for the CAMKK2 probe and negative control.xlsx, sheet "SGC-CAMKK2-1" | column: Percent Control

CASK = molecular target: T18, CASK (Homo sapiens, UniProt O14936); assay: KINOMEscan 1 μM, CASK; format: binding; details: 1000 nM; Entrez CASK; read-out: Percent Control
T18 construct: purchased Eurofins DiscoverX KINOMEscan
Excerpt: as §2

MAP3K3 = molecular target: T19, MAP3K3 (Homo sapiens, UniProt Q99759); assay: KINOMEscan 1 μM, MAP3K3; format: binding; details: 1000 nM; Entrez MAP3K3; read-out: Percent Control
T19 construct: purchased Eurofins DiscoverX KINOMEscan
Excerpt: as §2

MEK3 = molecular target: T20, MEK3 (Homo sapiens, UniProt P46734); assay: KINOMEscan 1 μM, MEK3; format: binding; details: 1000 nM; Entrez MAP2K3; read-out: Percent Control
T20 construct: purchased Eurofins DiscoverX KINOMEscan
Excerpt: as §2

CHEK1 = molecular target: T21, CHEK1 (Homo sapiens, UniProt O14757); assay: KINOMEscan 1 μM, CHEK1; format: binding; details: 1000 nM; Entrez CHEK1; read-out: Percent Control
T21 construct: purchased Eurofins DiscoverX KINOMEscan
Excerpt: as §2

PKMYT1 = molecular target: T22, PKMYT1 (Homo sapiens, UniProt Q99640); assay: KINOMEscan 1 μM, PKMYT1; format: binding; details: 1000 nM; Entrez PKMYT1; read-out: Percent Control
T22 construct: purchased Eurofins DiscoverX KINOMEscan
Excerpt: as §2

BRSK2 = molecular target: T23, BRSK2 (Homo sapiens, UniProt Q8IWQ3); assay: KINOMEscan 1 μM, BRSK2; format: binding; details: 1000 nM; Entrez BRSK2; read-out: Percent Control
T23 construct: purchased Eurofins DiscoverX KINOMEscan
Excerpt: as §2

CSNK1D = molecular target: T24, CSNK1D (Homo sapiens, UniProt P48730); assay: KINOMEscan 1 μM, CSNK1D; format: binding; details: 1000 nM; Entrez CSNK1D; read-out: Percent Control
T24 construct: purchased Eurofins DiscoverX KINOMEscan
Excerpt: as §2

EGFR(T790M) = molecular target: T25, EGFR(T790M) (Homo sapiens, UniProt P00533, T790M); assay: KINOMEscan 1 μM, EGFR(T790M); format: binding; details: 1000 nM; Entrez EGFR; read-out: Percent Control
T25 construct: purchased Eurofins DiscoverX KINOMEscan
Excerpt: as §2

EIF2AK1 = molecular target: T26, EIF2AK1 (Homo sapiens, UniProt Q9BQI3); assay: KINOMEscan 1 μM, EIF2AK1; format: binding; details: 1000 nM; Entrez EIF2AK1; read-out: Percent Control
T26 construct: purchased Eurofins DiscoverX KINOMEscan
Excerpt: as §2

EPHA3 = molecular target: T27, EPHA3 (Homo sapiens, UniProt P29320); assay: KINOMEscan 1 μM, EPHA3; format: binding; details: 1000 nM; Entrez EPHA3; read-out: Percent Control
T27 construct: purchased Eurofins DiscoverX KINOMEscan
Excerpt: as §2

FGR = molecular target: T28, FGR (Homo sapiens, UniProt P09769); assay: KINOMEscan 1 μM, FGR; format: binding; details: 1000 nM; Entrez FGR; read-out: Percent Control
T28 construct: purchased Eurofins DiscoverX KINOMEscan
Excerpt: as §2

FLT3(R834Q) = molecular target: T29, FLT3(R834Q) (Homo sapiens, UniProt P36888, R834Q); assay: KINOMEscan 1 μM, FLT3(R834Q); format: binding; details: 1000 nM; Entrez FLT3; read-out: Percent Control
T29 construct: purchased Eurofins DiscoverX KINOMEscan
Excerpt: as §2

MLK1 = molecular target: T30, MLK1 (Homo sapiens, UniProt P80192); assay: KINOMEscan 1 μM, MLK1; format: binding; details: 1000 nM; Entrez MAP3K9; read-out: Percent Control
T30 construct: purchased Eurofins DiscoverX KINOMEscan
Excerpt: as §2

NEK6 = molecular target: T31, NEK6 (Homo sapiens, UniProt Q9HC98); assay: KINOMEscan 1 μM, NEK6; format: binding; details: 1000 nM; Entrez NEK6; read-out: Percent Control
T31 construct: purchased Eurofins DiscoverX KINOMEscan
Excerpt: as §2

RIOK2 = molecular target: T32, RIOK2 (Homo sapiens, UniProt Q9BVS4); assay: DiscoverX KINOMEscan binding assay at 1 μM, RIOK2; details: Compound Concentration 1000 nM, read-out: Percent Control
T32 construct: purchased Eurofins DiscoverX KINOMEscan
Excerpt: as §2

[3] = molecular target: T33, TYK2(JH1domain-catalytic) (Homo sapiens, UniProt P29597); assay: DiscoverX KINOMEscan binding assay at 1 μM, TYK2(JH1domain-catalytic); details: Compound Concentration 1000 nM, read-out: Percent Control
T33 construct: TYK2(JH1domain-catalytic); purchased Eurofins DiscoverX KINOMEscan
Excerpt: as §2

T16 sequence (Q9UK32 401-745 limits assumed): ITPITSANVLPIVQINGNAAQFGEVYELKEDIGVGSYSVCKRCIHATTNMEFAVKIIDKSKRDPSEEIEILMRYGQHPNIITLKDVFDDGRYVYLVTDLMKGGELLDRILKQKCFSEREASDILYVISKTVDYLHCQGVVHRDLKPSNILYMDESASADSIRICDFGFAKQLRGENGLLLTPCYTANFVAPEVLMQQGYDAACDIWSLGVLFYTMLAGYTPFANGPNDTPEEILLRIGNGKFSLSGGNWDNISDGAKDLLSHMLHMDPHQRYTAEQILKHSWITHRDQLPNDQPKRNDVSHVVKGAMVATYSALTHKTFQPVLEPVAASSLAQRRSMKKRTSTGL
T1 sequence (Q86Z02 whole entry): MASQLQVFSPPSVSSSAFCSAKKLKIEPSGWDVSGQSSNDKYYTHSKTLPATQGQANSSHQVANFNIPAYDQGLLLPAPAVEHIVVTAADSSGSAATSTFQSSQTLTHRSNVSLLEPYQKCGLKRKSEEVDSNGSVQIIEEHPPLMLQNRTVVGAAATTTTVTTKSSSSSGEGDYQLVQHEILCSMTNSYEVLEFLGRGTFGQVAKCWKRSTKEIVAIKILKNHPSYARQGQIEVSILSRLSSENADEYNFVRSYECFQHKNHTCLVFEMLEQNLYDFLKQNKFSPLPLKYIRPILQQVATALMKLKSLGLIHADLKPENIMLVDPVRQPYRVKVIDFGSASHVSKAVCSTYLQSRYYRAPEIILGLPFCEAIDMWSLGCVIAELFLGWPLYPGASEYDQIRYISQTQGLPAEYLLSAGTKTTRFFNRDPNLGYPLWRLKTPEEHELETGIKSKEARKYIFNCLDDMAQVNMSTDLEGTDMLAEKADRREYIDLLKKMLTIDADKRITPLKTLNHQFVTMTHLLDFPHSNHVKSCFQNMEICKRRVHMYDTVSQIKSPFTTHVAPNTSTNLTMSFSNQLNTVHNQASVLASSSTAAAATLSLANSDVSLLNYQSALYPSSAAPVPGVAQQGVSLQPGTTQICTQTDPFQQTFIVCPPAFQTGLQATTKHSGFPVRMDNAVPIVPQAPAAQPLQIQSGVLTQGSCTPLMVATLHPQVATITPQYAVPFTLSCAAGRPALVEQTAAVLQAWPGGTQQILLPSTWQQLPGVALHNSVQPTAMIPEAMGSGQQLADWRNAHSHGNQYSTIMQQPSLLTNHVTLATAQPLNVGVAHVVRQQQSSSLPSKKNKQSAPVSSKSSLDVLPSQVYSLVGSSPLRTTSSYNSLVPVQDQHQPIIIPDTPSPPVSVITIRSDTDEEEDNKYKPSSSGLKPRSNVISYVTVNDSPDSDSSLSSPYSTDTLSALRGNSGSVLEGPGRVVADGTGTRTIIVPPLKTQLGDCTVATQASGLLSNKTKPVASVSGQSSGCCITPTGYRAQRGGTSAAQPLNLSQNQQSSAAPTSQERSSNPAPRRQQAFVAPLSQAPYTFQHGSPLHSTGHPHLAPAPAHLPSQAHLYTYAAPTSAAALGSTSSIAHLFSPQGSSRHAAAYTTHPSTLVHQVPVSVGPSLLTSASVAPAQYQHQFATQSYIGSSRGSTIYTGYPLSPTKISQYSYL
T19 sequence (Q99759 whole entry): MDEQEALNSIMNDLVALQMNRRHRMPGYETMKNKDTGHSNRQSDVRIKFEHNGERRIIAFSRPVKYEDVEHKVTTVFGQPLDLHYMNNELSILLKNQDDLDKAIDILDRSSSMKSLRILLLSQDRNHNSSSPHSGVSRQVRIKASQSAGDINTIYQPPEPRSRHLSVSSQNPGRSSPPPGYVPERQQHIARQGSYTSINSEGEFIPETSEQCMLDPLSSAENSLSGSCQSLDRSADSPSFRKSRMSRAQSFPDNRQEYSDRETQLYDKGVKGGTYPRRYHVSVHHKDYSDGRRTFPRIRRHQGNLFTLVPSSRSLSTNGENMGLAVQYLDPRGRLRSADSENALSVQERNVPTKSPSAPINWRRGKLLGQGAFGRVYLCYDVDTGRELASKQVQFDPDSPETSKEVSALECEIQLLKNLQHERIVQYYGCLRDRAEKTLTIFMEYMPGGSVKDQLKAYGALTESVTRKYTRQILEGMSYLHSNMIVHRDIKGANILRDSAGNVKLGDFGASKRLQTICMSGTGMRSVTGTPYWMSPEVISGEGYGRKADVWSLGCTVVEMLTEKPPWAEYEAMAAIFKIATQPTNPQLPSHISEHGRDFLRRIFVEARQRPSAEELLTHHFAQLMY
T13 sequence (P08631 whole entry): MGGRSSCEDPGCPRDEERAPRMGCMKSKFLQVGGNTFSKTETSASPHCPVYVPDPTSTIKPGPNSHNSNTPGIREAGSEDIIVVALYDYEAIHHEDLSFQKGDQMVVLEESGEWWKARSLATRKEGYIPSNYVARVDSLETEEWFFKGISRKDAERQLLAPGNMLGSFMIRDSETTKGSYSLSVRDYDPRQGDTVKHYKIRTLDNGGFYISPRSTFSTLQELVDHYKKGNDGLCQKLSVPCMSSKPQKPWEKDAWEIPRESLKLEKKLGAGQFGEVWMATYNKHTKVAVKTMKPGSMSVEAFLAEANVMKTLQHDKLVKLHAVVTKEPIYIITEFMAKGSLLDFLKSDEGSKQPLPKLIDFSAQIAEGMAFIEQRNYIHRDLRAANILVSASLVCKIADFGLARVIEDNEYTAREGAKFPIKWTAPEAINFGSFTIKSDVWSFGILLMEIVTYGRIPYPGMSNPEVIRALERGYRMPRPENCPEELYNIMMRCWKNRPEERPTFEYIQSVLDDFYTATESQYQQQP
T23 sequence (Q8IWQ3 whole entry): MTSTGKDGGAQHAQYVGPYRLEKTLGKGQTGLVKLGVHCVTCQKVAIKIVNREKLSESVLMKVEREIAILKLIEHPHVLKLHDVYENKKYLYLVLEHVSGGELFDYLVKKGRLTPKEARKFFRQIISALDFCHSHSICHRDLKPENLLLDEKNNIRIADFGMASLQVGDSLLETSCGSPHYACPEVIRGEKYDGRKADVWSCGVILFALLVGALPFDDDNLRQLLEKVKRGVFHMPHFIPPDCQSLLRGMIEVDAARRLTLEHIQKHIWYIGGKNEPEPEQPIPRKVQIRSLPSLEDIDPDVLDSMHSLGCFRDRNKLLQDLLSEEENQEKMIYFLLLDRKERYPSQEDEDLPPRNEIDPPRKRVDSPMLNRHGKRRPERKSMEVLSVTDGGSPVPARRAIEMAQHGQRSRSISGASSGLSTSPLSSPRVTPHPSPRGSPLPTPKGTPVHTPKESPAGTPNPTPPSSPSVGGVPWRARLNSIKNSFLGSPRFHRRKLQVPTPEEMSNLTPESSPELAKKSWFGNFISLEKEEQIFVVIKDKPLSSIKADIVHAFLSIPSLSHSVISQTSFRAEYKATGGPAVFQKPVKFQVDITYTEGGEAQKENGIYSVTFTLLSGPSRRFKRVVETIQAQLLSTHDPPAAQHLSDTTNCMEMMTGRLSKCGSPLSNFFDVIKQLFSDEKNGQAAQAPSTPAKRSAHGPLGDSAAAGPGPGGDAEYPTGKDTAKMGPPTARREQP
T17 sequence (P00533 with tags, fused parts or gaps DEL747-752/P753S limits assumed): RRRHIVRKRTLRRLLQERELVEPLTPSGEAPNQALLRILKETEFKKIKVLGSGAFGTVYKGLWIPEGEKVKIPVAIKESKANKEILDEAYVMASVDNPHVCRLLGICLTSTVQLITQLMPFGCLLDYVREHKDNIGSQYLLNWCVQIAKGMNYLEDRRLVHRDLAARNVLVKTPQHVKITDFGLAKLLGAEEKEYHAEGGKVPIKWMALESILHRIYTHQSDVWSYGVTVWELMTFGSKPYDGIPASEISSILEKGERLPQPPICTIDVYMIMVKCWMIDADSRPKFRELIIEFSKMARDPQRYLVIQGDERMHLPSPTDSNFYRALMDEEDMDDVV
T4 sequence (Q9NYL2 whole entry): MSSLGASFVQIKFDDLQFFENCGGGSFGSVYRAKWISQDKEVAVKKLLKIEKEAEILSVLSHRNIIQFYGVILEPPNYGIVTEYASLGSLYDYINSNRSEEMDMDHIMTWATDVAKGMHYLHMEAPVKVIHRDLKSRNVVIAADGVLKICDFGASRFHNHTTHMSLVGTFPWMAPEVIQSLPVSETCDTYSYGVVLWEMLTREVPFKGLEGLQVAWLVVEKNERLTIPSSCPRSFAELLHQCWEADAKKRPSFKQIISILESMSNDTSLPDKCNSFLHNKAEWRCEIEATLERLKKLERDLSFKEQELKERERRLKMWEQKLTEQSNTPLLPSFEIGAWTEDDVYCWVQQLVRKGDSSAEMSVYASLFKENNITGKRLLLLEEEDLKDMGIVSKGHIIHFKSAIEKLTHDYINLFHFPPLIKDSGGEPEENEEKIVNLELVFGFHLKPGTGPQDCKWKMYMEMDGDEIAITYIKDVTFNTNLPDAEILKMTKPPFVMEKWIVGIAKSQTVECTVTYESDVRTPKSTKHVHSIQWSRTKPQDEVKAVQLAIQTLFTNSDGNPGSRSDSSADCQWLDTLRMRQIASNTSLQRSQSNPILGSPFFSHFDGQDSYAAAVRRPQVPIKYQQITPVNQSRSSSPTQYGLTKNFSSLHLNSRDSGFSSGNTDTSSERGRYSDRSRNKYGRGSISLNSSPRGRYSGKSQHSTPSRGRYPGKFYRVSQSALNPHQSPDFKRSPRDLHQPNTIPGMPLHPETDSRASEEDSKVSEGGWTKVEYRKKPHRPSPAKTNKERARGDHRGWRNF
T24 sequence (P48730 whole entry): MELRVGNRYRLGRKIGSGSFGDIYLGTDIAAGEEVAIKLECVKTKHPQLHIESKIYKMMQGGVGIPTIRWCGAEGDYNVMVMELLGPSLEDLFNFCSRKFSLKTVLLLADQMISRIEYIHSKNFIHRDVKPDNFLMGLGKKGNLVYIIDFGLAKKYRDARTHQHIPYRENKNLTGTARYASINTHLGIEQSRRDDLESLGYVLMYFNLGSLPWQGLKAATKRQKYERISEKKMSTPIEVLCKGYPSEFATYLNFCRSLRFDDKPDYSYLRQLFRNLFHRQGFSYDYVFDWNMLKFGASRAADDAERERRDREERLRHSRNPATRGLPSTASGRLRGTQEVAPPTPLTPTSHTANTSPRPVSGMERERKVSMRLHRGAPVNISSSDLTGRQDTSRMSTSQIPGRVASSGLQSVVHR

O=C(O)c1ccc(-c2coc3ncc(-c4ccccc4)cc23)cc1Cl [SGC-CAMKK2-1N (UNC-YL-83)]
remaining binding at 1 µM (HIPK1): 44%
remaining binding at 1 µM (WNK2): 58%
remaining binding at 1 µM (TESK1): 59%
remaining binding at 1 µM (ZAK): 69%
remaining binding at 1 µM (PAK2): 78%
remaining binding at 1 µM (MST2): 79%
remaining binding at 1 µM (MAP3K2): 83%
remaining binding at 1 µM (BRAF(V600E)): 87%
remaining binding at 1 µM (CSF1R-autoinhibited): 89%
remaining binding at 1 µM (SNARK): 90%
remaining binding at 1 µM (MST1R): 98%
remaining binding at 1 µM (EPHA8): 100%
remaining binding at 1 µM (HCK): 100%
remaining binding at 1 µM (MAPKAPK5): 100%
remaining binding at 1 µM (PAK3): 100%
remaining binding at 1 µM [1]: 100%

Cc1cccc(-c2cnc3occ(-c4ccc(C(=O)O)c(C5CCCC5)c4)c3c2)c1 [SGC-CAMKK2-1 (YL-36)]
remaining binding at 1 µM [2]: 59%
remaining binding at 1 µM (CASK): 79%
remaining binding at 1 µM (MAP3K3): 88%
remaining binding at 1 µM (MEK3): 91%
remaining binding at 1 µM (CHEK1): 93%
remaining binding at 1 µM (PKMYT1): 99%
remaining binding at 1 µM (BRSK2): 100%
remaining binding at 1 µM (CSNK1D): 100%
remaining binding at 1 µM (EGFR(T790M)): 100%
remaining binding at 1 µM (EIF2AK1): 100%
remaining binding at 1 µM (EPHA3): 100%
remaining binding at 1 µM (FGR): 100%
remaining binding at 1 µM (FLT3(R834Q)): 100%
remaining binding at 1 µM (MLK1): 100%
remaining binding at 1 µM (NEK6): 100%
remaining binding at 1 µM (RIOK2): 100%
remaining binding at 1 µM [3]: 100%
